One experiment has as its system PDE5/CyaB1-chimera. Nature of the experiment: adenylate cyclase activity of PDE5/CyaB1-chimera (conversion of [α-32P]-ATP to cAMP). Type of experiment: biochemical, human. The following applies: in the presence of cGMP; FIG. 6.
Another experiment concerns the target PDE5 (Homo sapiens, UniProt O76074). The following applies: cited from earlier work.

Each structure is given as a SMILES string. “Also recorded” adds a separate entry of the source.

Protocol for PDE5/CyaB1-chimera: The adenylate cyclase activity of the PDE5/CyaB1-chimera is measured with and without the test substance. […] The incubation time should be between 1 and 120 min, the incubation temperature between 20 and 45° C., the Mg^2+-cofactor concentration between 1 and 20 mM (corresponding amounts of Mn^2+ may also be used as a cofactor) and the ATP concentration between 0.5 μM and 5 mM. An increase in the conversion with the substance compared to without the substance indicates a GAF-agonistic effect. If conversion is inhibited by adding the substance, this indicates a GAF-antagonistic effect of the substance. A GAF antagonism can also be measured via blockage of activation of PDE5/CyaB1-chimera by the native GAF ligand cGMP. In addition, the conversion at rising or fixed cGMP concentration is measured with and without the substance. If the conversion rates with the substance are below those without the substance, this indicates GAF antagonism of the substance. […]
The protein samples and the cocktail are measured in 1.5 mL reaction containers on ice, the reaction with ATP is started, and incubation is carried for 10 minutes at 37° C.
Each test mixture is carried in duplicate. […] With a test mixture without substance and cGMP, the basal enzyme activity is determined. […]
The inhibition or activation of the enzyme by the substance is calculated as % basal value according to the following formula: […]

Consider `CCCc1nn(C)c2c(=O)[nH]c(-c3cc(S(=O)(=O)N4CCN(C)CC4)ccc3OCC)nc12` [Sildenafil], for which the “PDE5-antagonistic effect via binding to the GAF domain of PDE5” value in the experiment with PDE5/CyaB1-chimera is given as “None of the measured PDE5 inhibitors shows a PDE5-antagonistic effect; also recorded: None of the measured PDE5 inhibitors showed a PDE5-antagonistic action”.

Consider `Nc1nc2c(ncn2[C@@H]2O[C@@H]3COP(=O)(O)O[C@H]3[C@H]2O)c(=O)[nH]1` [cGMP], for which the “increase of the activity of PDE5 via cGMP binding to the GAF tandem” value on PDE5 is listed as “tenfold”.

Values taken from US20090087871A1, “Method for Identifying PDE5-Modulators” (Atlanta Pharma AG, priority 2004, published 2009).
